Reference: PubChem BioAssay AID330 (DTP/NCI, 2004)
Several values for one entry are separate records, joined by “and”; a condition that tells them apart may be missing. Equal entries are not always repeated. Toxic doses and inconclusive results are not listed.

Tested on: P388 leukemia ip, CD2F1 mice, survival T/C
Test: NCI In Vivo Anticancer Drug Screen. Data for tumor model P388 Leukemia (intraperitoneal) in CD2F1 (CDF1) mice
Conditions: endpoint: median survival time, higher = longer survival
Procedure, shortened: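 Mice carrying the transplanted tumor received test compound or vehicle. Survival was recorded in each group, and the value is the treated-group measurement divided by that of the vehicle-treated control group.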

[1] = dose: 60.0 mg/kg/injection, schedule: Q01DX005 (ip), vehicle: saline with Tween-80
[2] = dose: 120.0 mg/kg/injection, schedule: Q01DX005 (ip), vehicle: saline with Tween-80
[3] = dose: 240.0 mg/kg/injection, schedule: Q01DX005 (ip), vehicle: saline with Tween-80
[4] = dose: 50.0 mg/kg/injection, schedule: Q01DX005 (ip), vehicle: saline with Tween-80
[5] = dose: 100.0 mg/kg/injection, schedule: Q01DX005 (ip), vehicle: saline with Tween-80
[6] = dose: 200.0 mg/kg/injection, schedule: Q01DX005 (ip), vehicle: saline with Tween-80

COc1ccc(/C=C2\CCc3cc(OC)ccc3C2=O)cc1
T/C (dose: 6.25 mg/kg/injection, schedule: Q01DX009 (ip), vehicle: Klucel (hydroxypropylcellulose) (HPC)): 117 % of control | T/C (dose: 12.5 mg/kg/injection, schedule: Q01DX009 (ip), vehicle: Klucel (hydroxypropylcellulose) (HPC)): 117 % of control | T/C (dose: 25.0 mg/kg/injection, schedule: Q01DX009 (ip), vehicle: Klucel (hydroxypropylcellulose) (HPC)): 115 % of control

COc1ccc(C(=O)C(CN(C)C)CN(C)C)cc1OC
T/C (dose: 6.25 mg/kg/injection, schedule: Q01DX005 (ip), vehicle: saline): 113 % of control | T/C (dose: 12.5 mg/kg/injection, schedule: Q01DX005 (ip), vehicle: saline): 117 % of control and 124 % of control | T/C (dose: 25.0 mg/kg/injection, schedule: Q01DX005 (ip), vehicle: saline): 117 % of control and 121 % of control | T/C (dose: 50.0 mg/kg/injection, schedule: Q01DX005 (ip), vehicle: saline): 112 % of control

COCC1OCCCO1
T/C (dose: 60.0 mg/kg/injection, schedule: Q01DX005 (ip), vehicle: saline): 102 % of control | T/C (dose: 120.0 mg/kg/injection, schedule: Q01DX005 (ip), vehicle: saline): 98 % of control | T/C (dose: 240.0 mg/kg/injection, schedule: Q01DX005 (ip), vehicle: saline): 97 % of control

C=CCN(CC=C)C(=O)Nc1cc(OC)ccc1OC
T/C [1]: 97 % of control | T/C [2]: 97 % of control | T/C [3]: 103 % of control

Cc1ccccc1NC(=O)C(=O)C(C#N)c1ccc(Cl)cc1Cl (configuration not stated)
T/C [4]: 100 % of control | T/C [5]: 100 % of control | T/C [6]: 98 % of control

COc1c(OC(C)=O)c(OC(C)=O)cc2c1-c1ccc(OC)c(=O)cc1C(NC(C)=O)CC2 (configuration not stated)
T/C (dose: 0.25 mg/kg/injection, schedule: Q01DX005 (ip), vehicle: saline): 117 % of control | T/C (dose: 0.5 mg/kg/injection, schedule: Q01DX005 (ip), vehicle: saline): 123 % of control | T/C (dose: 4.0 mg/kg/injection, schedule: Q01DX005 (ip), vehicle: saline): 155 % of control | T/C (dose: 8.0 mg/kg/injection, schedule: Q01DX005 (ip), vehicle: saline): 163 % of control | T/C (dose: 16.0 mg/kg/injection, schedule: Q01DX005 (ip), vehicle: saline): 172 % of control

Clc1ccc(Nc2ncnc3oc(-c4ccccc4)c(-c4ccccc4)c23)cc1
T/C [1]: 100 % of control | T/C [2]: 97 % of control | T/C [3]: 90 % of control

CCC[CH2][Sn]([N]=C=S)([N]=C=S)[N]=C=S.O=P(c1ccccc1)(c1ccccc1)c1ccccc1.O=P(c1ccccc1)(c1ccccc1)c1ccccc1
T/C (dose: 100.0 mg/kg/injection, schedule: Q04DX003 (ip), vehicle: saline): 98 % of control | T/C (dose: 200.0 mg/kg/injection, schedule: Q04DX003 (ip), vehicle: saline): 100 % of control | T/C (dose: 400.0 mg/kg/injection, schedule: Q04DX003 (ip), vehicle: saline): 99 % of control

CN(C)CCCN1C(=O)C2CCC(C)(C1=O)C2(C)C (configuration not stated)
T/C [4]: 100 % of control | T/C [5]: 101 % of control

Cc1ccccc1NC(=S)NC1C(=O)Nc2ccccc21 (configuration not stated)
T/C [4]: 101 % of control | T/C [5]: 107 % of control | T/C [6]: 98 % of control

O=C1CC2OCC=C3CN4CCC56c7ccccc7N1C5C2C3CC46 (configuration not stated)
T/C (dose: 0.2 mg/kg/injection, schedule: Q01DX009 (ip), vehicle: saline with Tween-80): 100 % of control | T/C (dose: 0.4 mg/kg/injection, schedule: Q01DX009 (ip), vehicle: saline with Tween-80): 102 % of control | T/C (dose: 0.8 mg/kg/injection, schedule: Q01DX009 (ip), vehicle: saline with Tween-80): 97 % of control

COc1cccc2c1C(=O)c1c(O)c(CCl)cc(OC)c1C2=O
T/C (dose: 7.5 mg/kg/injection, schedule: Q01DX005 (ip), vehicle: saline with Tween-80): 108 % of control | T/C (dose: 15.0 mg/kg/injection, schedule: Q01DX005 (ip), vehicle: saline with Tween-80): 117 % of control | T/C (dose: 30.0 mg/kg/injection, schedule: Q01DX005 (ip), vehicle: saline with Tween-80): 114 % of control | T/C [1]: 101 % of control

C[C@@H]1C[C@H](C)S(=O)[C@H](C)S1 (some centres not stated)
T/C (dose: 100.0 mg/kg/injection, schedule: Q04DX002 (ip), vehicle: saline): 101 % of control | T/C (dose: 200.0 mg/kg/injection, schedule: Q04DX002 (ip), vehicle: saline): 102 % of control | T/C (dose: 400.0 mg/kg/injection, schedule: Q04DX002 (ip), vehicle: saline): 100 % of control
